Experimental data as given in patent EP0530446A2, “Use of sulfur containing carboxylic acids for combatting pathophysiologic excitatory disorders and related diseases as well as allergic diseases and their preparation as medicament” (ASTA Medica Aktiengesellschaft, priority 1991, dated 1993).

How the values were obtained:
EEG der Ratte = test: Tele-Stereo-EEG in the rat: prevention of EEG changes caused by hypoglycaemic or ischaemic insult; format: in vivo; settings: 30 mg/kg i.p., compared with pre-dose value (Vorwert)
Protocol: Die erfindungsgemäßen Verbindungen der Formel zeigen beispielsweise im Modell zum Nachweis der Prevention der durch hypoglykämischen beziehungsweise ischämischen Insult verursachte Veränderungen im EEG der Ratte (im Vergleich zum Vorwert) bei der parenteralen Applikation (i.p. = intraperitoneal) bei 30 mg/kg (i.p.) des Racemats der alpha-Liponsäure 118 %, bei 30 mg/kg i.p. des (+)-Enantiomers 157 % und bei 30 mg/kg i.p. des (-)-Enantiomers 85 % Änderung der Leistungsdichte des beta-2-Bandes im frontalen Kortex.
Diese Untersuchung erfolgte analog der Methode Dimpfel et al, Neuropsychobiology 16: 163 - 168, (1986) mit der Änderung, daß die Ableitung vom Hippokampus anstelle des Thalamus erfolgt. (Radioelectroencephalography (Tele-Stereo-EEG) in the rat as a pharmacological model to differentiate the central action of flupirtine from that of opiates, diazepam and phenobarbital)
Männliche Fischer-344 Ratten wurden im Alter von 4 bis 5 Monaten 4 bipolar konzentrische Elektroden zusammen mit einem Mikrostecker auf einer gemeinsamen Basisplatte implantiert. Der Stecker diente der Aufnahme eines 4-Kanal-Senders zur telemetrischen Übertragung der aus frontalem Kortex, Hippokampus, Striatum und Formatio Reticularis abgeleiteten Feldpotentiale. Die Signale wurden auf einem Pro Science Computer System in Echtzeit einer Fast Fourier Transformation unterworfen und die Leistungsdichtespektren jeweils über 15 Minuten gemittelt. Die Unterteilung der Spektren in 6 verschiedene Frequenzbereiche erlaubte die Erfassung pharmakonspezifischer Veränderungen in Bezug auf die jeweils vor der Applikation gemessenen Vorwerte innerhalb dieser Frequenzbänder.
Zum Applikationsprotokoll der Substanzen: Die Substanzen wurden intraperitoneal 45 Minuten nach Beginn der Messungen (Vorwert) injiziert. Fünf Minuten später wurden die Messungen wieder gestartet, mindestens über die nächsten 2 Stunden kontinuierlich analysiert und in 15-minütigen Perioden zusammengefaßt. Die Testsubstanzen (zum Beispiel Thioctsäure) wurden in einer Dosierung von 30 mg/kg appliziert. […]

[1] = test system: PAF (Platelet-activating-Factor)-Acether-Ödem; test: PAF-acether paw oedema in the rat; format: in vivo, Ratte; settings: 0.5 h before PAF-acether 2 ug/animal subplantar, oedema read 1 h later
Protocol: Die antiallergische Wirkung wird unter anderem durch Untersuchungen im PAF (Platelet-activating-Factor)-Acether-Ödem an der Ratte belegt.
Prinzip der Methode ist es, durch subplantare Injektion von PAF-Acether 2 ug/Tier ein lokal begrenztes Ödem beziehungsweise eine Entzündung an der Rattenpfote zu erzeugen. Die Untersuchungen werden in Anlehnung an die Methode nach SWINGLE und REITER (Agents and actions, 18, 358-365, (1986)) durchgeführt. Die Tiere erhalten die Prüfsubstanzen 0,5 Stunden vor der Auslösung des Ödems verabreicht. 1 Stunde danach wird das Ödem plethysmographisch ermittelt.

[2] = test system: Hippocampusschnitt-Präparat von ethanolabhängigen Ratten; test: Hippocampal slice preparation of ethanol-dependent rats after 16 h withdrawal, excitability at decreasing Mg++; settings: slices 16 h after ethanol withdrawal (5 g/kg/day for 2 weeks), tested at 246 pg/ml
From the text: Die bei Ratten 16 Stunden nach dem Absetzen von Ethanol (5 g/kg/Tag Ethanol über einen Zeitraum von 2 Wochen) aus dem Hippocampus entnommenen Präparate wurden abnehmenden Magnesiumkonzentrationen im Superfusionsmedium ausgesetzt, um Plasizitätsveränderungen bei der Erregbarkeit der Pyramidenzellen nachweisen zu können. Die elektrisch ausgelösten und spontanen Entladungen wurden in Abwesenheit und Gegenwart der S(-)-Form der a-Liponsäure beobachtet.
Zwei Gruppen ausgewachsener, männlicher CD-Ratten (Charles River Wiga) erhielten handelsübliches Rattenfutter ad libitum. Das Trinkwasser wurde durch den Zusatz von 1 g Glukose/Liter gesüßt. Eine der Gruppen erhielt Wasser, das 5 % Ethanol enthielt. Die von den Tieren aufgenommene Wassermenge wurde täglich bestimmt und betrug in beiden Gruppen durchschnittlich 40 ml. Folglich nahm die Ethanolgruppe während des zweiwöchigen Versuches - ausgehend von ihrem durchschnittlichen Gewicht - innerhalb von 24 Stunden etwa 5 g/kg Ethanol auf.
Den Tieren wurde das modifizierte Trinkwasser über einen Zeitraum von 2 Wochen verabreicht. Außerdem wurde das Körpergewicht täglich ermittelt, wobei zwischen den beiden Gruppen keine Differenz beobachtet werden konnte. 16 Stunden vor Beginn der Messung der Erregbarkeit ex vivo erhielten die mit dem Ethanol behandelten Tiere ebenfalls glukosehaltiges Trinkwasser, um den Entzug einzuleiten. […]

[3] = test system: Hippocampusschnitt-Präparat von morphiumabhängigen Ratten; test: Hippocampal slice preparation of morphine-dependent rats after 16 h withdrawal, excitability at decreasing Mg++; settings: slices 16 h after morphine withdrawal (2 mg/kg s.c. twice daily for 2 weeks), tested at 100 µM
Protocol: Die bei Ratten 16 Stunden nach dem Entzug von Morphium (2 mg/kg Morphium subcutan, 2 x täglich über 2 Wochen lang) aus dem Hippocampus entnommenen Präparate wurden abnehmenden Magnesiumkonzentrationen im Superfusionsmedium ausgesetzt, um Platizitätsveränderungen bei der Erregbarkeit der Pyramidenzellen nachweisen zu können. Die elektrisch ausgelösten und spontanen Entladungen wurden in Abwesenheit und Gegenwart der S(-)-Form der a-Liponsäure beobachtet. […] Hierdurch ergibt sich eine Anwendung/Verwendung von a-Liponsäure bei Entziehungserscheinungen bei Drogenabhängigkeit.
Zwei Gruppen ausewachsener, männlicher CD-Ratten (Charles River Wiga) erhielten handelübliches Rattenfutter ad libitum. In den beiden Versuchwochen erhielten die Tiere der ersten Gruppe zweimal täglich 2 mg/kg Morphium. Der Kontrollgruppe wurde Kochsalzlösung injiziert. Das Körpergewicht wurde täglich registriert. 16 Stunden vor Beginn der Messung der Erregbarkeit ex vivo erhielten die mit Morphium behandelten Tiere keine Injektion mehr, um den Entzug einzleiten.
Die Tiere wurden in leichter Narkose ausgeblutet, das Gehirn wurde in toto entnommen und die Formatio hippocampi unter stereomikroskopischer Kontrolle isoliert. […]

SMILES	Änderung der Leistungsdichte des beta-2-Bandes im frontalen Kortex (EEG der Ratte)	Ödemhemmung in % ([1]; 25 mg/kg intraperitoneal)	Ödemhemmung in % ([1]; 50 mg/kg intraperitoneal)	ausgelöste Entladungen [2]	spontane Entladungen ([3]; decreasing Mg++)	Spitzenamplituden der Population ([3]; lower Mg++ concentrations)	Ödemhemmung in % ([1]; 200 mg/kg intraperitoneal)
O=C(O)CCCCC1CCSS1 (racemic) [α-Liponsäure, reference compound]	118%	14%	16%	–	–	–	–
O=C(O)CCCC[C@@H]1CCSS1 [(+)-Enantiomers, R(+)-a-Liponsäure]	157%	–	–	–	–	–	–
O=C(O)CCCC[C@H]1CCSS1 [(-)-Enantiomers, S(-)-a-Liponsäure]	85%	–	–	vollständige Dämpfung	abzuschwächen	auf Normalwerte zu senken	–
O=C(O)CCCCC(S)CCS (stereo not shown) [Dihydroliponsäure, 6,8-Dimercapto-octansäure]	–	–	63%	–	–	–	73%
